From PubChem BioAssay AID1963430 (Molecular Pharmacology Branch, DTP, NCI, 2024)

System: 521955-158-R2-J5-PDC complex spheroid growth, % test/control
Assay: Anticancer human tumor 521955-158-R2-J5-PDC patient-derived pancreatic carcinoma cell line growth inhibition [Asc]
Conditions: for IC50: curve of first compound; for viability, T/C: stronger effect = lower value
Outline: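 Complex spheroids combining tumor cells with HUVEC endothelial cells and human MSCs, at 37 degrees C, 5% CO2; agents tested alone or combined, half-log dilutions from at or near clinical Cmax, or 10 microM if Cmax unknown.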

[1] = second compound 0.1 µM, first compound 0.0316 µM
[2] = second compound 0.1 µM, first compound 0.1 µM
[3] = second compound 0.1 µM, first compound 0.316 µM
[4] = second compound 0.1 µM, first compound 1 µM
[5] = second compound 0.316 µM, first compound 0.0316 µM
[6] = second compound 0.316 µM, first compound 0.1 µM
[7] = second compound 0.316 µM, first compound 0.316 µM
[8] = second compound 0.316 µM, first compound 1 µM
[9] = second compound 1 µM, first compound 0.0316 µM
[10] = second compound 1 µM, first compound 0.1 µM
[11] = second compound 1 µM, first compound 0.316 µM
[12] = second compound 1 µM, first compound 1 µM
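Further: spheroids exposed to agents for 7 days before readout.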
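Wherever viability, T/C is given: 100% = DMSO vehicle control viability.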

## C=C(F)C(=O)N1CCN(c2nc(OCC3CCCN3C)nc3c2CCN(c2cccc4cccc(Cl)c24)C3)CC1CC#N (stereo not given) + CNC(C)C(=O)NC1CN(S(=O)(=O)c2cccc(S(=O)(=O)N3CCC4CCC(C(=O)NC(c5ccccc5)c5ccccc5)N4C(=O)C(NC(=O)C(C)NC)C3)c2)CCC2CCC(C(=O)NC(c3ccccc3)c3ccccc3)N2C1=O
Second compound 0.01 µM
  IC50: 5380 nM
Second compound 0.0316 µM
  IC50: 5410 nM
Second compound 0.1 µM
  IC50: 5720 nM
Second compound 0.316 µM
  IC50: 5600 nM
Second compound 1 µM
  IC50: 5440 nM
Second compound 0.01 µM, first compound 0.0316 µM
  viability, T/C: 87.1%
Second compound 0.01 µM, first compound 0.1 µM
  viability, T/C: 93.1%
Second compound 0.01 µM, first compound 0.316 µM
  viability, T/C: 100%
Second compound 0.01 µM, first compound 1 µM
  viability, T/C: 98.4%
Second compound 0.01 µM, first compound 3.16 µM
  viability, T/C: 92.6%
Second compound 0.01 µM, first compound 10 µM
  viability, T/C: 0.23%
Second compound 0.0316 µM, first compound 0.0316 µM
  viability, T/C: 100%
Second compound 0.0316 µM, first compound 0.1 µM
  viability, T/C: 95.6%
Second compound 0.0316 µM, first compound 0.316 µM
  viability, T/C: 81.3%
Second compound 0.0316 µM, first compound 1 µM
  viability, T/C: 90.6%
Second compound 0.0316 µM, first compound 3.16 µM
  viability, T/C: 99.7%
Second compound 0.0316 µM, first compound 10 µM
  viability, T/C: 0.23%
[1]
  viability, T/C: 111%
[2]
  viability, T/C: 106%
[3]
  viability, T/C: 79.8%
[4]
  viability, T/C: 93.4%
Second compound 0.1 µM, first compound 3.16 µM
  viability, T/C: 98.2%
Second compound 0.1 µM, first compound 10 µM
  viability, T/C: 5.12%
[5]
  viability, T/C: 119%
[6]
  viability, T/C: 103%
[7]
  viability, T/C: 84%
[8]
  viability, T/C: 91.1%
Second compound 0.316 µM, first compound 3.16 µM
  viability, T/C: 99%
Second compound 0.316 µM, first compound 10 µM
  viability, T/C: 0.31%
[9]
  viability, T/C: 85.9%
[10]
  viability, T/C: 102%
[11]
  viability, T/C: 92%
[12]
  viability, T/C: 94.7%
Second compound 1 µM, first compound 3.16 µM
  viability, T/C: 93%
Second compound 1 µM, first compound 10 µM
  viability, T/C: 1.89%

## NC(=O)C(=Cn1cnc(-c2cc(C(F)(F)F)cc(C(F)(F)F)c2)n1)c1cncnc1 + CCN1C(C(=O)NC23CCC(C(=O)O)(CC2)CC3)C(c2cccc(Cl)c2F)C2(C(=O)Nc3cc(Cl)ccc32)C12CCCCC2
Second compound 0.03 µM
  IC50: 6.31 nM
Second compound 0.0949 µM
  IC50: 2.84 nM
Second compound 0.3 µM
  IC50: 5.68 nM
Second compound 0.949 µM
  IC50: 6.71 nM
Second compound 3 µM
  IC50: 10.1 nM
Second compound 0.03 µM, first compound 0.000949 µM
  viability, T/C: 57.6%
Second compound 0.03 µM, first compound 0.003 µM
  viability, T/C: 62.8%
Second compound 0.03 µM, first compound 0.00949 µM
  viability, T/C: 44.4%
Second compound 0.03 µM, first compound 0.03 µM
  viability, T/C: 34.9%
Second compound 0.03 µM, first compound 0.0949 µM
  viability, T/C: 30.7%
Second compound 0.03 µM, first compound 0.3 µM
  viability, T/C: 38.5%
Second compound 0.0949 µM, first compound 0.000949 µM
  viability, T/C: 103%
Second compound 0.0949 µM, first compound 0.003 µM
  viability, T/C: 45.5%
Second compound 0.0949 µM, first compound 0.00949 µM
  viability, T/C: 47.2%
Second compound 0.0949 µM, first compound 0.03 µM
  viability, T/C: 41.7%
Second compound 0.0949 µM, first compound 0.0949 µM
  viability, T/C: 33%
Second compound 0.0949 µM, first compound 0.3 µM
  viability, T/C: 36.2%
Second compound 0.3 µM, first compound 0.000949 µM
  viability, T/C: 76.5%
Second compound 0.3 µM, first compound 0.003 µM
  viability, T/C: 51.3%
Second compound 0.3 µM, first compound 0.00949 µM
  viability, T/C: 50.5%
Second compound 0.3 µM, first compound 0.03 µM
  viability, T/C: 38.3%
Second compound 0.3 µM, first compound 0.0949 µM
  viability, T/C: 33.6%
Second compound 0.3 µM, first compound 0.3 µM
  viability, T/C: 32.8%
Second compound 0.949 µM, first compound 0.000949 µM
  viability, T/C: 94.2%
Second compound 0.949 µM, first compound 0.003 µM
  viability, T/C: 58.1%
Second compound 0.949 µM, first compound 0.00949 µM
  viability, T/C: 47.9%
Second compound 0.949 µM, first compound 0.03 µM
  viability, T/C: 42%
Second compound 0.949 µM, first compound 0.0949 µM
  viability, T/C: 35.7%
Second compound 0.949 µM, first compound 0.3 µM
  viability, T/C: 43.8%
Second compound 3 µM, first compound 0.000949 µM
  viability, T/C: 109%
Second compound 3 µM, first compound 0.003 µM
  viability, T/C: 75.6%
Second compound 3 µM, first compound 0.00949 µM
  viability, T/C: 53.1%
Second compound 3 µM, first compound 0.03 µM
  viability, T/C: 34.5%
Second compound 3 µM, first compound 0.0949 µM
  viability, T/C: 49.9%
Second compound 3 µM, first compound 0.3 µM
  viability, T/C: 45.4%

## CNC(C)C(=O)NC1CN(S(=O)(=O)c2cccc(S(=O)(=O)N3CCC4CCC(C(=O)NC(c5ccccc5)c5ccccc5)N4C(=O)C(NC(=O)C(C)NC)C3)c2)CCC2CCC(C(=O)NC(c3ccccc3)c3ccccc3)N2C1=O (stereo not given) + Cc1c(S(C)(=O)=O)c(-c2cc(F)cc(N3CCN(c4ccc(NS(=O)(=O)c5ccc(NC(CCN6CCC(C(=O)OCCCP(=O)(O)O)CC6)CSc6ccccc6)c(S(=O)(=O)C(F)(F)F)c5)cc4)CC3)c2)c(-c2ccc(Cl)cc2)n1C(C)C
Second compound 0.1 µM
  IC50: > 1000 nM
Second compound 0.316 µM
  IC50: > 1000 nM
Second compound 1 µM
  IC50: > 1000 nM
Second compound 3.16 µM
  IC50: > 1000 nM
Second compound 10 µM
  IC50: > 1000 nM
Second compound 0.1 µM, first compound 0.00316 µM
  viability, T/C: 75.6%
Second compound 0.1 µM, first compound 0.01 µM
  viability, T/C: 64%
[1]
  viability, T/C: 57.1%
[2]
  viability, T/C: 76.4%
[3]
  viability, T/C: 64%
[4]
  viability, T/C: 67.9%
Second compound 0.316 µM, first compound 0.00316 µM
  viability, T/C: 92.7%
Second compound 0.316 µM, first compound 0.01 µM
  viability, T/C: 86.7%
[5]
  viability, T/C: 89.3%
[6]
  viability, T/C: 74.6%
[7]
  viability, T/C: 91.1%
[8]
  viability, T/C: 87.6%
Second compound 1 µM, first compound 0.00316 µM
  viability, T/C: 97.2%
Second compound 1 µM, first compound 0.01 µM
  viability, T/C: 88.4%
[9]
  viability, T/C: 71.8%
[10]
  viability, T/C: 77.8%
[11]
  viability, T/C: 59.8%
[12]
  viability, T/C: 75.7%
Second compound 3.16 µM, first compound 0.00316 µM
  viability, T/C: 97.7%
Second compound 3.16 µM, first compound 0.01 µM
  viability, T/C: 75.9%
Second compound 3.16 µM, first compound 0.0316 µM
  viability, T/C: 47.5%
Second compound 3.16 µM, first compound 0.1 µM
  viability, T/C: 80.6%
Second compound 3.16 µM, first compound 0.316 µM
  viability, T/C: 65.8%
Second compound 3.16 µM, first compound 1 µM
  viability, T/C: 60.4%
Second compound 10 µM, first compound 0.00316 µM
  viability, T/C: 192%
Second compound 10 µM, first compound 0.01 µM
  viability, T/C: 171%
Second compound 10 µM, first compound 0.0316 µM
  viability, T/C: 180%
Second compound 10 µM, first compound 0.1 µM
  viability, T/C: 149%
Second compound 10 µM, first compound 0.316 µM
  viability, T/C: 197%
Second compound 10 µM, first compound 1 µM
  viability, T/C: 121%
